Experimental data taken from paper PMC9950205, “Efficacy, safety, and pharmacokinetics of teduglutide in adult Japanese patients with short bowel syndrome and intestinal failure: two phase III studies with an extension” (Surgery Today, 2022).

Tested on: adult Japanese patients with SBS-IF
Assay: Safety: treatment-emergent adverse events (TEAEs, TESAEs)
Format: in vivo
Source text: Safety analyses included the monitoring of adverse events (AEs), body weight, BMI, vital signs, 12-lead electrocardiogram (ECG), serum biochemistry, hematology, and presence of antibodies to teduglutide. AEs were coded using the Medical Dictionary for Regulatory Activities versions 17.1 (TED-C14-004) and 21.0 (SHP633-306 and SHP633-307). Specifically, AEs were treatment-emergent AEs (TEAEs), defined as any unfavorable and unintended sign (including any abnormal laboratory finding), symptom, or disease that occurred during treatment with teduglutide, whether or not the event was considered to be related to the study drug by the clinical study investigator. AEs were also categorized as mild, moderate, or severe. […] AEs were considered related to treatment with teduglutide, or its administration, based on the investigator's medical judgment.

[1] = > 24 weeks (SHP633-307 and TED-C14-004), 0.05 mg/kg/day

CC[C@H](C)[C@H](NC(=O)[C@H](Cc1ccccc1)NC(=O)[C@H](CC(=O)O)NC(=O)[C@H](CCCNC(=N)N)NC(=O)[C@H](C)NC(=O)[C@H](C)NC(=O)[C@H](CC(C)C)NC(=O)[C@H](CC(N)=O)NC(=O)[C@H](CC(=O)O)NC(=O)[C@H](CC(C)C)NC(=O)[C@@H](NC(=O)[C@@H](NC(=O)[C@H](CC(N)=O)NC(=O)[C@H](CCSC)NC(=O)[C@H](CCC(=O)O)NC(=O)[C@H](CC(=O)O)NC(=O)[C@H](CO)NC(=O)[C@H](Cc1ccccc1)NC(=O)[C@H](CO)NC(=O)CNC(=O)[C@H](CC(=O)O)NC(=O)CNC(=O)[C@@H](N)Cc1c[nH]cn1)[C@@H](C)O)[C@@H](C)CC)C(=O)N[C@@H](CC(N)=O)C(=O)N[C@@H](Cc1c[nH]c2ccccc12)C(=O)N[C@@H](CC(C)C)C(=O)N[C@H](C(=O)N[C@@H](CCC(N)=O)C(=O)N[C@H](C(=O)N[C@@H](CCCCN)C(=O)N[C@H](C(=O)N[C@H](C(=O)N[C@@H](CC(=O)O)C(=O)O)[C@@H](C)O)[C@@H](C)CC)[C@@H](C)O)[C@@H](C)CC [teduglutide]
Abdominal distension: Events [1]: 2 n | Abdominal distension: Patients [1]: 2 (13.3) n (%) | Abdominal pain: Events [1]: 1 n | Abdominal pain: Patients [1]: 1 (6.7) n (%) | Anal abscess: Events [1]: 3 n | Anal abscess: Patients [1]: 3 (20.0) n (%) | Anemia: Events [1]: 0 n | Anemia: Patients [1]: 0 n (%) | Any TEAE: Events [1]: 199 n | Any TEAE: Patients [1]: 11 (73.3) n (%) | Arthralgia: Events [1]: 5 n | Arthralgia: Patients [1]: 5 (33.3) n (%) | Back pain: Events [1]: 1 n | Back pain: Patients [1]: 1 (6.7) n (%) | Blood and lymphatic system disorders: Events [1]: 0 n | Blood and lymphatic system disorders: Patients [1]: 0 n (%) | Catheter site infection: Events [1]: 1 n | Catheter site infection: Patients [1]: 1 (6.7) n (%) | Catheter site pain: Events [1]: 4 n | Catheter site pain: Patients [1]: 2 (13.3) n (%) | Dehydration: Events [1]: 2 n | Dehydration: Patients [1]: 2 (13.3) n (%) | Dermatitis contact: Events [1]: 4 n | Dermatitis contact: Patients [1]: 4 (26.7) n (%) | Device occlusion (central venous catheter for PS): Events [1]: 3 n | Device occlusion (central venous catheter for PS): Patients [1]: 2 (13.3) n (%) | Device-related infection (central venous catheter for PS): Events [1]: 24 n | Device-related infection (central venous catheter for PS): Patients [1]: 7 (46.7) n (%) | Diarrhea: Events [1]: 4 n | Diarrhea: Patients [1]: 3 (20.0) n (%) | Dry skin: Events [1]: 1 n | Dry skin: Patients [1]: 1 (6.7) n (%) | Enteritis: Events [1]: 1 n | Enteritis: Patients [1]: 1 (6.7) n (%) | Enterocolitis: Events [1]: 2 n | Enterocolitis: Patients [1]: 2 (13.3) n (%) | Eye disorder: Events [1]: 5 n | Eye disorder: Patients [1]: 1 (6.7) n (%) | Gastrointestinal disorders: Events [1]: 33 n | Gastrointestinal disorders: Patients [1]: 8 (53.3) n (%) | General disorders and administration site conditions: Events [1]: 16 n | General disorders and administration site conditions: Patients [1]: 5 (33.3) n (%) | Headache: Events [1]: 11 n | Headache: Patients [1]: 5 (33.3) n (%) | Hematuria: Events [1]: 2 n | Hematuria: Patients [1]: 2 (13.3) n (%) | Hemorrhage subcutaneous: Events [1]: 2 n | Hemorrhage subcutaneous: Patients [1]: 2 (13.3) n (%) | Hepatobiliary disorders: Events [1]: 2 n | Hepatobiliary disorders: Patients [1]: 2 (13.3) n (%) | Hypersensitivity: Events [1]: 2 n | Hypersensitivity: Patients [1]: 2 (13.3) n (%) | Hypozincemia: Events [1]: 1 n | Hypozincemia: Patients [1]: 1 (6.7) n (%) | Immune system disorders: Events [1]: 2 n | Immune system disorders: Patients [1]: 2 (13.3) n (%) | Infections and infestations: Events [1]: 62 n | Infections and infestations: Patients [1]: 10 (66.7) n (%) | Influenza: Events [1]: 18 n | Influenza: Patients [1]: 5 (33.3) n (%) | Injection site reaction: Events [1]: 0 n | Injection site reaction: Patients [1]: 0 n (%) | Injury, poisoning, and procedural complications: Events [1]: 1 n | Injury, poisoning, and procedural complications: Patients [1]: 1 (6.7) n (%) | Insomnia: Events [1]: 2 n | Insomnia: Patients [1]: 2 (13.3) n (%) | Investigations: Events [1]: 5 n | Investigations: Patients [1]: 2 (13.3) n (%) | Metabolism and nutrition disorders: Events [1]: 7 n | Metabolism and nutrition disorders: Patients [1]: 5 (33.3) n (%) | Musculoskeletal and connective tissue disorders: Events [1]: 10 n | Musculoskeletal and connective tissue disorders: Patients [1]: 6 (40.0) n (%) | Nasopharyngitis: Events [1]: 18 n | Nasopharyngitis: Patients [1]: 5 (33.3) n (%) | Nausea: Events [1]: 7 n | Nausea: Patients [1]: 3 (20.0) n (%) | Nervous system disorders: Events [1]: 19 n | Nervous system disorders: Patients [1]: 7 (46.7) n (%) | Oropharyngeal pain: Events [1]: 3 n | Oropharyngeal pain: Patients [1]: 3 (20.0) n (%) | Pruritus: Events [1]: 1 n | Pruritus: Patients [1]: 1 (6.7) n (%) | Psychiatric disorders: Events [1]: 4 n | Psychiatric disorders: Patients [1]: 3 (20.0) n (%) | Pyrexia: Events [1]: 5 n | Pyrexia: Patients [1]: 4 (26.7) n (%) | Renal and urinary disorders: Events [1]: 4 n | Renal and urinary disorders: Patients [1]: 3 (20.0) n (%) | Respiratory, thoracic, and mediastinal disorders: Events [1]: 8 n | Respiratory, thoracic, and mediastinal disorders: Patients [1]: 3 (20.0) n (%) | Skin and subcutaneous tissue disorders: Events [1]: 13 n | Skin and subcutaneous tissue disorders: Patients [1]: 7 (46.7) n (%) | Somnolence: Events [1]: 3 n | Somnolence: Patients [1]: 3 (20.0) n (%) | Stomatitis: Events [1]: 3 n | Stomatitis: Patients [1]: 3 (20.0) n (%) | Upper respiratory tract inflammation: Events [1]: 1 n | Upper respiratory tract inflammation: Patients [1]: 1 (6.7) n (%) | Vascular disorders: Events [1]: 4 n | Vascular disorders: Patients [1]: 3 (20.0) n (%) | Vascular pain: Events [1]: 3 n | Vascular pain: Patients [1]: 2 (13.3) n (%) | Vomiting: Events [1]: 1 n | Vomiting: Patients [1]: 1 (6.7) n (%) | TESAEs considered to be related to teduglutide (SHP633-306 or SHP633-307): No TESAEs | Deaths during the study (TED-C14-004, one patient, acute hepatic and renal failure 52 days after teduglutide discontinuation): only death | Abdominal distension: Events (Total, 0.05 mg/kg/day): 6 n | Abdominal distension: Patients (Total, 0.05 mg/kg/day): 6 (33.3) n (%) | Abdominal pain: Events (Total, 0.05 mg/kg/day): 6 n | Abdominal pain: Patients (Total, 0.05 mg/kg/day): 5 (27.8) n (%) | Anal abscess: Events (Total, 0.05 mg/kg/day): 3 n | Anal abscess: Patients (Total, 0.05 mg/kg/day): 3 (16.7) n (%) | Anemia: Events (Total, 0.05 mg/kg/day): 2 n | Anemia: Patients (Total, 0.05 mg/kg/day): 2 (11.1) n (%) | Any TEAE: Events (Total, 0.05 mg/kg/day): 320 n | Any TEAE: Patients (Total, 0.05 mg/kg/day): 18 (100.0) n (%) | Arthralgia: Events (Total, 0.05 mg/kg/day): 5 n | Arthralgia: Patients (Total, 0.05 mg/kg/day): 5 (27.8) n (%) | Back pain: Events (Total, 0.05 mg/kg/day): 2 n | Back pain: Patients (Total, 0.05 mg/kg/day): 2 (11.1) n (%) | Blood and lymphatic system disorders: Events (Total, 0.05 mg/kg/day): 4 n | Blood and lymphatic system disorders: Patients (Total, 0.05 mg/kg/day): 3 (16.7) n (%) | Catheter site infection: Events (Total, 0.05 mg/kg/day): 2 n | Catheter site infection: Patients (Total, 0.05 mg/kg/day): 2 (11.1) n (%) | Catheter site pain: Events (Total, 0.05 mg/kg/day): 5 n | Catheter site pain: Patients (Total, 0.05 mg/kg/day): 2 (11.1) n (%) | Dehydration: Events (Total, 0.05 mg/kg/day): 4 n | Dehydration: Patients (Total, 0.05 mg/kg/day): 2 (11.1) n (%) | Dermatitis contact: Events (Total, 0.05 mg/kg/day): 4 n | Dermatitis contact: Patients (Total, 0.05 mg/kg/day): 4 (22.2) n (%) | Device occlusion (central venous catheter for PS): Events (Total, 0.05 mg/kg/day): 6 n | Device occlusion (central venous catheter for PS): Patients (Total, 0.05 mg/kg/day): 3 (16.7) n (%) | Device-related infection (central venous catheter for PS): Events (Total, 0.05 mg/kg/day): 33 n | Device-related infection (central venous catheter for PS): Patients (Total, 0.05 mg/kg/day): 10 (55.6) n (%) | Diarrhea: Events (Total, 0.05 mg/kg/day): 5 n | Diarrhea: Patients (Total, 0.05 mg/kg/day): 4 (22.2) n (%) | Dry skin: Events (Total, 0.05 mg/kg/day): 2 n | Dry skin: Patients (Total, 0.05 mg/kg/day): 2 (11.1) n (%) | Enteritis: Events (Total, 0.05 mg/kg/day): 2 n | Enteritis: Patients (Total, 0.05 mg/kg/day): 2 (11.1) n (%) | Enterocolitis: Events (Total, 0.05 mg/kg/day): 4 n | Enterocolitis: Patients (Total, 0.05 mg/kg/day): 3 (16.7) n (%) | Eye disorder: Events (Total, 0.05 mg/kg/day): 7 n | Eye disorder: Patients (Total, 0.05 mg/kg/day): 3 (16.7) n (%) | Gastrointestinal disorders: Events (Total, 0.05 mg/kg/day): 60 n | Gastrointestinal disorders: Patients (Total, 0.05 mg/kg/day): 15 (83.3) n (%) | General disorders and administration site conditions: Events (Total, 0.05 mg/kg/day): 37 n | General disorders and administration site conditions: Patients (Total, 0.05 mg/kg/day): 10 (55.6) n (%) | Headache: Events (Total, 0.05 mg/kg/day): 14 n | Headache: Patients (Total, 0.05 mg/kg/day): 7 (38.9) n (%) | Hematuria: Events (Total, 0.05 mg/kg/day): 3 n | Hematuria: Patients (Total, 0.05 mg/kg/day): 3 (16.7) n (%) | Hemorrhage subcutaneous: Events (Total, 0.05 mg/kg/day): 3 n | Hemorrhage subcutaneous: Patients (Total, 0.05 mg/kg/day): 2 (11.1) n (%) | Hepatobiliary disorders: Events (Total, 0.05 mg/kg/day): 5 n | Hepatobiliary disorders: Patients (Total, 0.05 mg/kg/day): 4 (22.2) n (%) | Hypersensitivity: Events (Total, 0.05 mg/kg/day): 2 n | Hypersensitivity: Patients (Total, 0.05 mg/kg/day): 2 (11.1) n (%) | Hypozincemia: Events (Total, 0.05 mg/kg/day): 2 n | Hypozincemia: Patients (Total, 0.05 mg/kg/day): 2 (11.1) n (%)
